# Results from US20060166907A1, “Composition for the treatment of nasopharyngeal carcinoma and method of use thereof” (priority 2002, published 2006).
# pIC50: −log10 of the molar value. Where two headings read alike, the source gives them in different places.
# What was measured:
# C15 cells [1] = conditions: for pIC50: read-out: IC 50, NPC cell viability, C15 Cells, 72 h incubation, WST-1, PolyHEMA-coated plates
# [2] = test system: TWO1 and TWO39 NPC cell lines; conditions: TWO1 and TWO39, EBV-negative lines; cited from earlier work
# C15 cells [3] = assay: cells; conditions: Homo sapiens, 72 h, read-out: IC 50, NPC cell viability, C15 Cells
# C666-1 cells = assay: WST-1 cell viability assay, C666-1 cells; conditions: for pIC50: read-out: IC 50, NPC cell viability, C666-1 Cells
# Experimental: Cell viability assays were performed in 96 well plastic microplates, either uncoated (C666-1) or coated with Poly HEMA (C15). For each cell line, the number of cells distributed per well was optimized in order to achieve the highest metabolic activity while keeping exponential growth till the end of the test. C15 and C666-1 cells were seeded at 10^5 and 35×10^3/well, respectively, in 150 μl culture medium. Following an overnight pre-incubation culture, serial dilutions of chemotherapy drugs (50 μl; final concentration 50 nM-50 μM) were added in quadruplicate to a […]. At the completion of a 72 h incubation with tested pharmacological agents, cell viability was evaluated using the WST-1 assay (Roche Molecular, France). The WST-1 assay is based on the cleavage of the tetrazolium salt by mitochondrial dehydrogenases. […] Cells were incubated with 10 μl of the WST-1 reagent added to the culture medium, for 3 to 6 h, at 37° C. The plates were subsequently read on an ELISA reader (Dynatech MR7000, Guernsey channel Island, USA) using a 490 nm filter. The mean and standard deviation were determined for quadruplicate samples. For each compound, values falling in the linear part of sigmoid curve were included in a linear regression analysis and were used to estimate the 50% inhibitory concentration (IC 50). Measurement of caspase activity in drug treated NPC cells.
# (Ali, H. et al., Chemotherapy in advanced nasopharyngeal cancer. Oncology (Huntingt), 14:1223-1230, 2000.) Their short term cytotoxic effect was assessed in vitro on the C15 and C666-1 cells, using a cell viability assay based on WST reduction. Cultured cells were incubated in the presence of various concentrations of each therapeutic agent for 72 hours.
# [4] = target: T1, FTase from human brain cytosol (Homo sapiens, UniProt P49354+P49356); assay: In vitro FTase assay ([3H]-farnesylation of H-Ras); format: biochemical; conditions: mean of 2 experiments (lowest-highest); read-out: Enzyme assays IC50 FTase
# T1 construct: FTase from human brain cytosol; purchased ABS Reagents, Wilmington, Del; host or cells: human brain cytosol (tissue-derived, not recombinant)
# Experimental: (§1) The effect of Compound A and other drugs on FTase activity was assayed in vitro with FTase from human brain cytosol (ABS Reagents, Wilmington, Del.) as target enzyme and recombinant human H-Ras protein containing the wild type CAAX box (Biomol, Plymouth Meeting, Pa.) as a specific substrate. The incubation mixture (25 μl) for [^3H]-farnesylation contained 50 mM Tris-HCl (pH 7.5), 5 mM dithiothreitol, 20 μM ZnCl2, 40 mM MgCl2, 0.6 μM [^3H]-farnesyl pyrophosphate (22.3 Ci/mmol) (NEN, Boston, Mass.), 4 μM recombinant H-Ras and 10 μg FTase. After 60 min at 37° C., the reaction was stopped by adding 150 μl of absolute ethanol. The mixture was then filtered on Unifilter GF/B microplate (Packard, Rungis, France) and washed 6 times with ethanol prior to scintillation counting. After adding 50 μl of Microscint 0, plates were counted with a Packard Top Count scintillation counter. Drug effects on GGTase I activity were assayed by a similar method with GGTase I from human brain (ABS reagent) as target enzyme and human recombinant H-Ras containing a mutated CAAX box (CVLL)(Biomol). The incubation mixture contained 4 μM recombinant H-Ras, 0.6 μM [^3H]-geranylgeranyl-pyrophosphate (19.3 Ci/mmol) (NEN) and 100 μg of GGTase I. GGTI-286 was used as a positive control for the GGTase-I inhibition assay. Results were expressed as the concentrations of drugs required to inhibit 50% of prenyl-incorporation into the recombinant H-Ras proteins (IC50). Assessment of farnesyl-transferase inhibition in intact cells.
# [5] = target: T2, GGTase I from human brain (Homo sapiens, UniProt P49354+P53609); assay: In vitro GGTase I assay ([3H]-geranylgeranylation of H-Ras CVLL); format: biochemical; conditions: read-out: Enzyme assays IC50 GGTase I
# T2 construct: GGTase I from human brain; purchased ABS reagent; host or cells: human brain (tissue-derived, not recombinant)
# Experimental: as §1
# C15 cells [6] = assay: TRAF1 cleavage Western blot, C15 cells; format: cell-based, human; conditions: 24 h, doxorubicin 1 μM, Compound A 5 μM
# Experimental: FIG. 6. Induction of TRAF1-cleavage in C15 cells treated with doxorubicin combined to Compound A. A: Diagram of Fas-mediated TRAF-1-cleavage as reported by Leo et al. (2001). The locations of target peptides used for production of the H-3 monoclonal and H-132 polyclonal antibody are indicated by hatched boxes. The peptide targeted by H-3 was entirely contained in fragment II whereas the peptide targeted by H132 was mainly co-linear with fragment I. B: C15 cells were treated for 24 h with doxorubicin (1 μM), Compound A […] or a combination of both. Control cells were treated with the Fas-agonist antibody 7C11. Cell lysates (50 μg protein per lane) were separated on a 8-16% SDS-PAGE linear gradient prior to Western Blot analysis with anti-TRAF-1 antibodies. Both antibodies detected a main band at 46 kd Additional bands corresponding to fragments of smaller sizes were visible, mainly in samples treated with 7C11 or the combination of doxorubicin and Compound A. In the extracts of cells treated with 7C11, these smaller fragments had apparent molecular weights of 29 kD (H-3) and 24 kD (H-132) which were compatible with the sizes of TRAF1 fragments reported by Leo et al. (2001). Similar results were obtained in three similar experiments.
# C15 cells [7] = assay: Nuclear morphology, Hoechst 33342 staining, C15 cells; format: cell-based, human; conditions: 48 h to 72 h, doxorubicin 1 μM, Compound A 5 μM
# From the text: FIG. 3. […] A: non-treated cells.
# C15 cells [8] = assay: PARP cleavage Western blot, C15 cells; format: cell-based, human; conditions: doxorubicin 1 μM, Compound A 5 μM, combination at 24 h
# Experimental: FIG. 5. […] Corresponding cell lysates (50 μg protein per lane) were separated by 7.5% SDS-PAGE and analyzed by Western Blot with an anti-PARP monoclonal antibody. The cleaved product of PARP was at 85 kD, as shown in the positive-control extract derived from C15 cells treated with the CD95 agonist-antibody 7C11.
# [9] = test system: farnesyl-transferase in intact MIAPaca cells; assay: Farnesyl-transferase inhibition in intact cells (H-Ras and N-Ras Western blot); format: cell-based, human; conditions: 48 h
# Experimental: The effect of Compound A on farnesyl-transferase in intact cells was assayed in MIAPaca cells, a human pancreatic carcinoma cell line which was purchased from the ATCC. Both H-Ras and N-Ras were investigated as reference substrates of the endogenous farnesyl-transferase. Total protein extracts were prepared from MIAPaca cells treated for 48 h with increasing concentrations of Compound A (1-100 nM) along with extracts from untreated cells as a negative control. A positive control was provided by cells treated with mevastatine (30 μM). Mevastatine is an HMG-CoA reductase inhibitor which blocks the synthesis of farnesyl metabolic precursors. Cell extracts were separated by SDS-polyacrylamide gels (15%) and analyzed by Western blot with polyclonal antibodies directed to H-Ras and N-Ras (Santa Cruz, Heidelberg, Germany). Farnesyl-transferase inhibition was assessed indirectly by detection of non-prenylated forms of H-Ras and N-Ras which were slightly shifted toward higher molecular weights and reacted more efficiently with antibodies. Assessment of drug effect on NPC cell viability.
# CNE1 NPC cell line = conditions: CNE1, EBV-negative line; cited from earlier work
# [10] = mean of 2 experiments (lowest-highest)
smiles,measurement,setting,value
CC(=O)O[C@H]1C(=O)[C@@]2(C)[C@H]([C@H](OC(=O)c3ccccc3)[C@]3(O)C[C@H](OC(=O)[C@H](O)[C@@H](NC(=O)c4ccccc4)c4ccccc4)C(C)=C1C3(C)C)[C@]1(OC(C)=O)CO[C@@H]1C[C@@H]2O [Taxol],sensitivity to short term cytotoxic effect,C15 cells [1],totally resistant
same,effect on NPC cell lines,[2],induce growth arrest and/or apoptosis
same,pIC50,C15 cells [3],≤ 4.60
same,sensitivity to short term cytotoxic effect,C666-1 cells,highly sensitive
same,pIC50,"C666-1 cells; Homo sapiens, C6661, 72 h",6.70
COC(=O)[C@H](CCSC)NC(=O)c1ccc(NC[C@@H](N)CS)cc1-c1ccccc1 [FTI-277],pIC50,[4],7.52
same,pIC50,[5]; [10],6.50
O=c1[nH]cc(F)c(=O)[nH]1 [5-fluorouracyl],sensitivity to short term cytotoxic effect,C15 cells [1],No significant effects
same,pIC50,C15 cells [1],≤ 5.30
same,sensitivity to short term cytotoxic effect,C666-1 cells,No significant effects
same,pIC50,"C666-1 cells; 72 h incubation, WST-1",≤ 5.30
CC[C@H](C)[C@@H](CN1CSC(C)(C)[C@H]1C(=O)N[C@@H](CCSC)C(=O)OC)NC[C@@H](N)CS [BIM-46068],pIC50,[4],7.04
same,pIC50,[5]; [10],3.57
"COc1cccc2c1C(=O)c1c(O)c3c(c(O)c1C2=O)C[C@@](O)(C(=O)CO)C[C@@H]3O[C@H]1C[C@H](N)[C@H](O)[C@H](C)O1 [Doxorubicin, doxorubicin]",TRAF1 cleavage,C15 cells [6],no modifications
same,pIC50,C15 cells [3],6.82
same,nuclear apoptosis morphological changes,C15 cells [7],much less apparent
same,pIC50,"C666-1 cells; Homo sapiens, C6661, 72 h",6.70
same,PARP cleavage,C15 cells [8],Moderate PARP cleavage
COc1cc(Cn2cncc2CC(=O)N2Cc3nc(-c4ccccc4Br)cn3Cc3c(F)cccc32)ccc1C#N [Compound A],concentration giving significant inhibition of H-Ras and N-Ras farnesylation,[9],50 nM
same,pIC50,[4],7.82
same,TRAF1 cleavage,C15 cells [6],no modifications
same,pIC50,C15 cells [3],5.00
same,nuclear apoptosis morphological changes,C15 cells [7],much less apparent
same,pIC50,"C666-1 cells; Homo sapiens, C6661, 72 h",5.00
same,PARP cleavage,C15 cells [8],Moderate PARP cleavage
same,pIC50,[5],< 4.00
COC(=O)[C@H](CC(C)C)NC(=O)c1ccc(NC[C@@H](N)CS)cc1-c1ccccc1 [GGTI-286],pIC50,[4],6.44
same,pIC50,[5]; [10],6.94
"N.N.[Cl][Pt][Cl] [Cis-platinum, cis-platin]",enhancement of cytotoxicity by combination with Compound A,C15 cells [1],not observed
same,pIC50,C15 cells [1],6.00
same,concentration inducing growth arrest,CNE1 NPC cell line,about 1 μM
same,pIC50,"C666-1 cells; 72 h incubation, WST-1",5.30
